Measurements as given in ChEMBL document CHEMBL4616712, “Design and Synthesis of 1,2-Deoxy-pyranose Derivatives of Spliceostatin A toward Prostate Cancer Treatment” (ACS Med Chem Lett, 2020).

Assays:
CWR22R = test: Suppression of AR-V7 expression in human CWR22Rv1 cells expressing GFP measured after 3 days by FACS assay; type: functional, cell-based; conditions: 22Rv1, 72 h
[1] = Toxicity in BALB/c mouse assessed as mouse death at 280 nM/body, iv measured after 24 hrs; type: organism-based; conditions: in vivo, 0.28 µM
LNCaP = test: Suppression of AR-V7 expression in human LNCAP cells expressing GFP; type: functional, cell-based
[2] = Toxicity in BALB/c mouse assessed as mouse death at 280 nM/body, iv administered on day 2 and day 4; type: organism-based; conditions: in vivo, 0.28 µM
[3] = Toxicity in BALB/c mouse assessed as effect on weight loss at 280 nM/body, iv administered on day 2 and day 4; type: organism-based; conditions: in vivo, 0.28 µM

Structure (SMILES)	IC50 (CWR22R)	further results
CO[C@]1(C)C[C@@]2(CO2)[C@H](O)[C@@H](/C=C/C(C)=C/C[C@@H]2O[C@H](C)[C@H](NC(=O)/C=C\[C@H](C)OC(C)=O)C[C@@H]2C)O1	0.0006 µM	Activity [1]: Toxic
CC(=O)O[C@@H](C)/C=C\C(=O)N[C@@H]1C[C@H](C)[C@H](C/C=C(C)/C=C/[C@H]2OCC[C@]3(O[C@H]3C)[C@@H]2O)O[C@@H]1C	0.187 µM	–
CC(=O)O[C@@H](C)/C=C\C(=O)N[C@@H]1C[C@H](C)[C@H](C/C=C(C)/C=C/[C@H]2O[C@H](c3ccccc3)C[C@@]3(CO3)[C@@H]2O)O[C@@H]1C	–	IC50 (LNCaP): 0.132 µM
CC(=O)O[C@@H](C)/C=C\C(=O)N[C@@H]1C[C@H](C)[C@H](C/C=C(C)/C=C/[C@H]2OCC[C@]3(O[C@@H]3C)[C@@H]2O)O[C@@H]1C	0.202 µM	–
CC(=O)O[C@@H](C)/C=C\C(=O)N[C@@H]1C[C@H](C)[C@H](C/C=C(C)/C=C/[C@H]2OCC[C@@]3(CO3)[C@@H]2O)O[C@@H]1C	0.0033 µM	Activity [2]: Non-Toxic; Activity [3]: Non-Toxic
